Measurements reported in US20090286713A9, “Collagen Receptor I-Domain Binding Modulators” (Biotie Therapies Corporation, priority 2005, published 2009).

Experiments:
α2 I-domain = biological target: T1, α2 I-domain (Homo sapiens, UniProt P17301); experiment: Solid-phase binding assay, α2 I-domain binding to type I collagen
T1 construct: corresponded to amino acids 124-339 of the whole α2 integrin; made in house; host or cells: E. coli BL21 (pGEX-2T)
T1 sequence (P17301 153-368): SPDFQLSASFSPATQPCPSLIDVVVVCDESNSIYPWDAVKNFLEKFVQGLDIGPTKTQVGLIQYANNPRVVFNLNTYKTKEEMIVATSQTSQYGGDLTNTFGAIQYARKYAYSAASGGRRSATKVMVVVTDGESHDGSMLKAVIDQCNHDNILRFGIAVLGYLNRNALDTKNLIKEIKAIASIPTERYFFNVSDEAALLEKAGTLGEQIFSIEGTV
Procedure: (§1) Solid-phase binding assay for α1-domains—The coating of a 96-well high binding microtiter plate (Nune) was done by exposure to 0.1 ml of PBS containing 5 μg/cm2 (15 μg/ml) collagens or 20 μg/ml triple-helical peptides overnight at +4° C. Blank wells were coated with 1:1 solution of 0.1 ml Delfia® Diluent II (Wallac) and PBS. Residual protein absorption sites on all wells were blocked with 1:1 solution of 0.1 ml Delfia® Diluent II (Wallac) and PBS. Recombinant proteins (αI-GST) were added to the coated wells at a desired concentration in Delfia® Assay Buffer and incubated for 1 h at room temperature. Europium-labelled anti-GST antibody (Wallac) was then added (typically 1:1000), and the mixture was incubated for 1 h at room temperature. All incubations mentioned above were done in the presence of 2 mM MgCl2. Delfia® enhancement solution (Wallac) was added to each well and the Europium signal was measured by time-resolved fluorometry (Victor2 multilabel counter, Wallac). At least three parallel wells were analyzed. In some cases some what modified solid-phase assay was used and it was performed according Tulla et al, 2001. It uses anti-GST and Europium-labelled protein G instead of Europium-labelled anti-GST antibody.
The tetracyclic Streptomyces compounds synthesised in Example 1, where screened for inhibition of collagen binding to α1 and α2 I-domains, using the α I-domain assay described in Example 4. […] L3015 could inhibit the binding of both α1I and α2 I-domains to type I and type IV collagen (FIG. 6B).
Based on the utilization of 3D model other compounds from the polyketide family were tested. The compounds were tested in the europium-labelled anti-GST assay described in Example 4. Tetracyclic polyketides L3007, L3008, and L3009 could inhibit α2 I-domain binding to type I collagen (FIG. 8A).

[1] = biological target: T2, CHO cells expressing α2β1 integrin (Homo sapiens, UniProt P17301); experiment: Cell adhesion assay, CHO-α2 cells on collagen type I; assay type: cell-based, Chinese Hamster; details: FIG. 10A, 10B
T2 sequence (P17301 1-1181): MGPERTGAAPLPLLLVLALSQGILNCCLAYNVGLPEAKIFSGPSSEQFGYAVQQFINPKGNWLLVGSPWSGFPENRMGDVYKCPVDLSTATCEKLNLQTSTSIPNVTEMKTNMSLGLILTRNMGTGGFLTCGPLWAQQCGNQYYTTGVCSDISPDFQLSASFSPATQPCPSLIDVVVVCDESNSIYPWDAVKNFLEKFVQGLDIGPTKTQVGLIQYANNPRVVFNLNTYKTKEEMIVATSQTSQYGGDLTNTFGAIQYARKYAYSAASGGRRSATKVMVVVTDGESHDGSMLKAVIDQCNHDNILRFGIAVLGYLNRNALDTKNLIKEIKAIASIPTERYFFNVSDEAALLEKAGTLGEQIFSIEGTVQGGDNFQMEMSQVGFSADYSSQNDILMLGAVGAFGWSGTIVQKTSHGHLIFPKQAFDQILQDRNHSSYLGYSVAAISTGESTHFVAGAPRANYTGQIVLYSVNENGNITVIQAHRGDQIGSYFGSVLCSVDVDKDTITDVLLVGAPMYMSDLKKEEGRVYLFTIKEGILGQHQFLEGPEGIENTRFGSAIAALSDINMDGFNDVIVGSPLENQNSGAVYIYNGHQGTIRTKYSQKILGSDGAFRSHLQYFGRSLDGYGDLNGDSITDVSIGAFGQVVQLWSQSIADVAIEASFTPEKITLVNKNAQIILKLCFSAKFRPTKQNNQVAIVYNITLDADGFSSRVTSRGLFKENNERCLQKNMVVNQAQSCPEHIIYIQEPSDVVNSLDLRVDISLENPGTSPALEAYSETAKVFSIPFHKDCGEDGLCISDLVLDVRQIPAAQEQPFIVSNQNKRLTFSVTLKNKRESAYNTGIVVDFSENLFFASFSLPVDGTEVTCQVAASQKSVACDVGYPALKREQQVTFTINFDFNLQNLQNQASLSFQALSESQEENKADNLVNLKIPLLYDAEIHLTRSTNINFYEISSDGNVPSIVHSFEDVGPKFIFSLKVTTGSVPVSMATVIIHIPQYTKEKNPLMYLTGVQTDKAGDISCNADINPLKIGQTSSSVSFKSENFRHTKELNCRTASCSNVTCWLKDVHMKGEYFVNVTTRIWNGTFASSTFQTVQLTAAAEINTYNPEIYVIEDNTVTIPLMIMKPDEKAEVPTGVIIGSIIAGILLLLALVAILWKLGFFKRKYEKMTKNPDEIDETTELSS
Procedure: (§2) Chinese Hamster Ovary (CHO) cell clone expressing wild type α2 integrin was used in cell adhesion assay. Cells were suspended in serum free medium containing 0.1 mg/ml cycloheximide (Sigma) and the compounds were preincubated with the cells prior to transfer to the wells. Cells (150000/well) were allowed to attach on collagen type I coated wells (in the presence and absence of inhibitor compounds) for 2 h at +37° C. and after that non-adherent cells were removed. Fresh serum free medium was added and the living cells were detected using a cell viability kit (Roche) according to the manufacturers protocol.
(§3) For this purpose CHO cells were transfected to express α2β1 integrin on their surface as their only collagen receptor.

[2] = biological target: T3, CHO cells expressing α2β1 integrin (Homo sapiens, UniProt P05556+P17301); experiment: as above; assay type: cell-based, Chinese Hamster; details: CHO cells expressing α2β1; FIG. 10A; read-out: EC50 of cell adhesion to type I collagen
T3 sequence (P17301 1-1181): T2 sequence (P17301 1-1181)
Procedure: as §2, §3

α11 I-domain = biological target: T4, α11 I-domain (Homo sapiens, UniProt Q9UKX5); experiment: Solid-phase binding assay, α11 I-domain binding to type I collagen; details: at 0.05 mM concentration; FIG. 9
T4 construct: two extra residues before α11I, residues 159-354; made in house; host or cells: E. coli BL21
T4 sequence (Q9UKX5 159-354): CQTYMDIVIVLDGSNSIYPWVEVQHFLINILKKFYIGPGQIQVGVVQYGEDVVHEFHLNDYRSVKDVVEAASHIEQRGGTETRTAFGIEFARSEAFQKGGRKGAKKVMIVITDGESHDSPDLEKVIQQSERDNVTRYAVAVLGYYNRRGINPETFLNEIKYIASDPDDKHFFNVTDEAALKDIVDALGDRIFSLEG
Procedure: as §1
The inhibitory effect of L3009 was tested with all collagen binding integrin α I-domains, α1I, α2I, α10I and α11I as described in Example 4. […]

COC(=O)c1c(C(C)C)cc(O)c2c(O)c3c(c(O)c12)C(=O)c1cccc(O)c1C3=O [Compound L3009, methyl 4,5,7,12-tetrahydroxy-2-methylethyl)-6,11-dioxonaphthacenecarboxylate]
inhibition of α2 I-domain binding to type I collagen (in words) (α2 I-domain; FIG. 6B, 7A, 8A): could inhibit
inhibition of collagen I binding of α2I (α2 I-domain; at 0.05 mM concentration, FIG. 9): could inhibit
inhibition of cell adhesion to collagen type I (in words) [1]: potent inhibitor
EC50 [2]: ~20 µM
inhibition of collagen I binding of α11I (α11 I-domain): could inhibit
